# Data taken from US11707440B2 (priority 2017, dated 2023).
# “And” between values parts separate entries of the source, which are not always exact repeats. Identical values can stand only once. “Also recorded” adds a separate entry of the source. Like-named read-outs stand apart in the source and are kept apart here. Marks after values point to notes of the source that are not given here.
# How the values were obtained:
# [1] = for Stock solution stability: stock solutions
# From the text: This example provides an LC-MS/MS method for the determination of ketamine and norketamine in sodium heparin human plasma using ketamine-d4 and norketamine-d4 as the respective internal standards (IS).
# [2] = tested on: adult female Sprague Dawley rats, PCG/RSC; details: 3 hours after a single intraperitoneal injection (Jevtovic-Todorovic 2000); cited from earlier work
# [3] = tested on: female Sprague-Dawley rats, PCG/RSC of the brain; assay: Single dose neurotoxicity study, intranasal instillation; details: for Clinical observation: Abnormal respiration / Clinical observation: Ataxia / Clinical observation: Catalepsy / Clinical observation: Chromodacryorrhea / Clinical observation: Decreased general activity / Clinical observation: Decubitus / Clinical observation: Increased general activity / Clinical observation: Narrowed palpebral fissure / Clinical observation: Piloerection / Clinical observation: Salivation (out of normal) / Clinical observation: audible respiration / Clinical observation: bradypnoea: single dose intranasal
# Protocol: Esketamine HCl was instilled intranasally at doses of 0 (vehicle), 36, 54 or 72 mg (expressed as esketamine base) to female rats on a single day. The dose levels were obtained by 2, 3 or 4 subsequent intranasal instillations, respectively, into both nostrils at a volume of 50 μL per nostril. At each instillation, the second nostril was dosed immediately after the first nostril. The interval between subsequent instillations into both nostrils was 5 minutes.
# The vehicle control group received 4 subsequent intranasal instillations of the vehicle into both nostrils (50 μL per nostril) with 5-minute intervals.
# The injection volume was 5 mL/kg.
# The vehicle- and the 36 and 54 mg-dosed groups consisted of 24 animals per group, while the 72 mg-dosed and positive control groups involved 30 animals per group. Four satellite animals were added to the esketamine HCl-dosed groups of main study animals for toxicokinetic (TK) purposes. In these animals the plasma exposure to esketamine was measured on the day of dosing at various time points up to and including 24 hours after the first instillation.
# Prior to the perfusion, rats were anesthetized with isoflurane. After injection of 0.1 ml heparin, the blood of the rat was flushed out with a physiological saline solution by intraarterial insertion of a needle in the abdominal aorta. Thereafter the rat was perfused with glutaraldehyde 3% in potassium phosphate 0.09M and 1.4% sucrose. Due to logistic constraints at maximum 30 animals could undergo the whole-body perfusion procedure on a given day. Therefore, a staggered start of treatment was applied to all 5 groups of main study animals. Consequently, subgroups of 4 main study animals of the vehicle- and 36 and 54 mg-dosed groups, and 5 main study animals of the 72 mg-dosed and positive control groups, were dosed on 6 consecutive days, respectively.
# The vehicle control, positive control, and esketamine HCl-dosed animals were sacrificed at either 48 hours (i.e., the first 12 or 15 rats per group) or 96 hours after the dose administration time (i.e., the last 12 or 15 rats per group). The brain tissue of the vehicle control-, positive control- and esketamine HCl-treated rats were processed at the same time and handled in the same way in batches of 4 or 5 animals per group.
# (§1) Furthermore, clinical observations were recorded for the esketamine HCl-dosed rats on the day of dosing at 0 till 5 minutes, 15 and 30 minutes, and at 1, 2, 4, 6 hours post-dose, at the end of the working day and at 24 hours after the last instillation in the single dose study and on the first day of dosing, after one week and towards the end of the dosing period in the repeated dose study. Body weight and body weight gain were measured daily. Food consumption was measured weekly in the repeated dose study.
# (§2) On the day of terminal kill, a complete physical examination was performed on the rats in fasted condition and body weight was recorded. The surviving animals were anaesthetized by inhalation of an isoflurane (IsoFlo® Zoetis, Belgium)/oxygen mixture and killed by exsanguination via the carotid artery. […] All terminally killed rats or those killed pre-terminally were perfused with 4% paraformaldehyde in the single dose study and with glutaraldehyde 3% in potassium phosphate buffer 0.09 M with 1.4% sucrose in the repeated dose study.
# (§3) Brain tissue was sampled and processed routinely. The trimmed and embedded tissue was sectioned and stained with hematoxylin-eosin (HE). Histoprocessing and staining were carried out in three batches of 4 animals per group (each batch thus containing 4 animals from vehicle control-, positive control- and the three esketamine HCl-treated groups). In the single dose study duplicate brain sections were stained with Fluoro-Jade (FJ).
# All tissues showing gross abnormalities were examined macroscopically.
# [4] = tested on: female Sprague-Dawley rats, PCG/RSC of the brain; assay: 14-day repeated dose neurotoxicity study, intranasal instillation; details: for Clinical observation: Abnormal respiration / Clinical observation: Ataxia / Clinical observation: Chromodacryorrhea / Clinical observation: Decreased general activity / Clinical observation: Decubitus / Clinical observation: Increased general activity / Clinical observation: Salivation (out of normal) / Clinical observation: audible respiration / Clinical observation: bradypnoea: 14 days
# Protocol: Esketamine HCl was administered into each nostril of female rats at a volume of 50 μl per nostril either once, twice or thrice daily by intranasal instillation for 14 consecutive days at doses of 0 (vehicle), 18, 36 or 54 mg/day. At each instillation, the second nostril was dosed immediately after the first nostril. The interval between subsequent instillations into both nostrils was 5 minutes when dosed 2 or 3 times per day.
# The vehicle control group received 3 subsequent intranasal instillations of the vehicle into both nostrils (50 μL per nostril) with 5-minute intervals for 14 consecutive days.
# The positive control group received a single subcutaneous injection of (+)MK-801 at 48 hours prior to the necropsy of the vehicle control and esketamine HCl-treated animals.
# Each group of main study animals consisted of 12 female rats. Four satellite animals were added to the esketamine HCl-dosed groups of main study animals for TK purposes. The plasma exposure to esketamine was measured in these animals on the first and the last day of dosing at various time points up to and including 24 hours after the first instillation.
# Due to logistic constraints associated with the whole body perfusion procedure of the animals at necropsy, a staggered start was applied to the study. Consequently, all 5 groups of main study animals were divided into three subgroups of 4 animals each. For each of these subgroups treatment started on a different day. The perfusion procedure is the is the same as described for the single dose study.
# All vehicle- and esketamine HCl-treated animals were sacrificed at 48 hours after the last instillation. […] The brain tissue of the vehicle control-, positive control- and esketamine HCl-treated rats were processed at the same time and handled in the same way in batches of 4 animals per group.
# as §1, §2, §3
# All tissues showing gross abnormalities were examined […]. Histopathological examination was performed on 7 levels of brain tissue according to Bolon (2013. Toxicol. Pathol. 41(7), 1028-1048) from the vehicle control-, positive control-, and high dose esketamine HCl-treated groups in the single dose study, and in all groups in the repeated dose study.
# [5] = Maximum solubility of esketamine HCl; details: room temperature, pH 4.5; factor 1.15
# Protocol: The clinical investigational product is an aqueous solution of the drug substance, esketamine hydrochloride (HCl). This formulation is administered intranasally to patients using a dual nasal spray device, which delivers one spray into each nostril. […] The formulation was stored at 37° C. for stability reasons until dosing.
# NMDA receptor = details: cited from earlier work
compound,measurement,setting,value
"CNC1(c2ccccc2Cl)CCCCC1=O (racemic) [ketamine, reference compound]",QC sample freeze/thaw stability,[1]; freeze (−20° C.)/thaw (ice-water bath),3 freeze (−20° C.)/thaw (ice-water bath) cycles
same,QC sample freeze/thaw stability,[1]; freeze (−20° C.)/thaw (room temperature),3 freeze (−20° C.)/thaw (room temperature) cycles
same,QC sample bench-top stability,"[1]; human plasma, room temperature",68.5 hours at room temp
same,QC sample long-term storage stability,"[1]; human plasma, −20° C.",1552 days at −20 °C
same,Processed sample stability,[1]; room temperature,146.5 hours at room temperature
same,Whole Blood Stability,[1]; room temperature and ice-water bath (0-4° C.),120 minutes at room temperature and in an ice-water bath
same,Stock solution stability (spike solutions),"[1]; spike solutions, −20° C.",610 days at −20 °C for ketamine/norketamine spike solutions
same,Stock solution stability,[1]; room temperature under white light,6 h
same,Stock solution stability,[1]; −20° C.,15100 h
same,ED50-value for the induction of neuronal vacuolation in the PCG/RSC,[2],47.5 mg/kg body weight
"CN[C@]1(c2ccccc2Cl)CCCCC1=O.Cl [esketamine HCl, (S)-2-(2-chlorophenyl)-2-(methylamino)cyclohexanone hydrochloride]","Duration of severely decreased activity with decubitus, bradypnea, ptosis and catalepsy (anesthesia)",[3]; 36 mg,15 to 30 min
same,Clinical observation: Abnormal respiration,[3]; 36 mg,22/24***
same,Clinical observation: Ataxia,[3]; 36 mg,24/24***
same,Clinical observation: Catalepsy,[3]; 36 mg,20/24***
same,Clinical observation: Chromodacryorrhea,[3]; 36 mg,0/24
same,Clinical observation: Decreased general activity,[3]; 36 mg,23/24***
same,Clinical observation: Decubitus,[3]; 36 mg,23/24***
same,Clinical observation: Increased general activity,[3]; 36 mg,24/24***
same,Clinical observation: Narrowed palpebral fissure,[3]; 36 mg,7/24**
same,Clinical observation: Piloerection,[3]; 36 mg,0/24
same,Clinical observation: Salivation (out of normal),[3]; 36 mg,23/24***
same,Clinical observation: audible respiration,[3]; 36 mg,10/24***
same,Clinical observation: bradypnoea,[3]; 36 mg,22/24***
same,Clinical observation: Abnormal respiration,[3]; 54 mg,22/24***
same,Clinical observation: Ataxia,[3]; 54 mg,24/24***
same,Clinical observation: Catalepsy,[3]; 54 mg,23/24***
same,Clinical observation: Chromodacryorrhea,[3]; 54 mg,0/24
same,Clinical observation: Decreased general activity,[3]; 54 mg,23/24***
same,Clinical observation: Decubitus,[3]; 54 mg,23/24***
same,Clinical observation: Increased general activity,[3]; 54 mg,24/24***
same,Clinical observation: Narrowed palpebral fissure,[3]; 54 mg,10/24***
same,Clinical observation: Piloerection,[3]; 54 mg,0/24
same,Clinical observation: Salivation (out of normal),[3]; 54 mg,24/24***
same,Clinical observation: audible respiration,[3]; 54 mg,3/24
same,Clinical observation: bradypnoea,[3]; 54 mg,21/24***
same,Duration of ataxia (and hyperactivity) after the decrease in activity subsided,"[3]; 54 mg, hydrochloride",1.5 to 3 h and 1 to 3 h
same,"Duration of severely decreased activity with decubitus, bradypnea, ptosis and catalepsy (anesthesia)","[3]; 54 mg, hydrochloride",30 minutes to one hour and 30 minutes to an hour
same,Duration of ataxia (and hyperactivity) after the decrease in activity subsided,[3]; 72 mg,up to 3 hours or longer
same,Clinical observation: Abnormal respiration,[3]; 72 mg,30/30***
same,Clinical observation: Catalepsy,[3]; 72 mg,30/30***
same,Clinical observation: Chromodacryorrhea,[3]; 72 mg,0/30
same,Clinical observation: Decreased general activity,[3]; 72 mg,30/30***
same,Clinical observation: Decubitus,[3]; 72 mg,30/30***
same,Clinical observation: Increased general activity,[3]; 72 mg,29/30***
same,Clinical observation: Narrowed palpebral fissure,[3]; 72 mg,22/30***
same,Clinical observation: Piloerection,[3]; 72 mg,0/30
same,Clinical observation: Salivation (out of normal),[3]; 72 mg,29/30***
same,Clinical observation: audible respiration,[3]; 72 mg,2/30
same,Clinical observation: bradypnoea,[3]; 72 mg,30/30***
same,Mortality,"[3]; single dose 72 mg, within 30 minutes after 4 instillations",two main study animals and two satellite TK animals died
same,Mortality,[3]; single dose up to 54 mg,No test article related mortality
same,"Brain histopathology (neuronal necrosis, Olney lesions)","[3]; single dose up to 72 mg, 48 and 96 hours post-dose, hydrochloride",no morphological evidence of neuronal degeneration; also recorded: histopathological lesions were absent; also recorded: No signs of neuronal necrosis; also recorded: no neuropathological lesions were observed
same,Clinical observation: Abnormal respiration,[4]; 18 mg/day intranasal,2/12
same,Clinical observation: Ataxia,[4]; 18 mg/day intranasal,12/12***
same,Clinical observation: Chromodacryorrhea,[4]; 18 mg/day intranasal,0/12
same,Clinical observation: Decreased general activity,[4]; 18 mg/day intranasal,5/12
same,Clinical observation: Decubitus,[4]; 18 mg/day intranasal,0/12
same,Clinical observation: Increased general activity,[4]; 18 mg/day intranasal,12/12***
same,Clinical observation: Salivation (out of normal),[4]; 18 mg/day intranasal,12/12***
same,Clinical observation: audible respiration,[4]; 18 mg/day intranasal,2/12
same,Clinical observation: bradypnoea,[4]; 18 mg/day intranasal,0/12
same,Clinical observation: Abnormal respiration,[4]; 36 mg/day intranasal,11/12***
same,Clinical observation: Ataxia,[4]; 36 mg/day intranasal,12/12***
same,Clinical observation: Chromodacryorrhea,[4]; 36 mg/day intranasal,0/12
same,Clinical observation: Decreased general activity,[4]; 36 mg/day intranasal,12/12***
same,Clinical observation: Decubitus,[4]; 36 mg/day intranasal,2/12
same,Clinical observation: Increased general activity,[4]; 36 mg/day intranasal,12/12***
same,Clinical observation: Salivation (out of normal),[4]; 36 mg/day intranasal,12/12***
same,Clinical observation: audible respiration,[4]; 36 mg/day intranasal,6/12**
same,Clinical observation: bradypnoea,[4]; 36 mg/day intranasal,11/12***
same,Clinical observation: Abnormal respiration,[4]; 54 mg/day intranasal,12/12***
same,Clinical observation: Ataxia,[4]; 54 mg/day intranasal,12/12***
same,Clinical observation: Chromodacryorrhea,[4]; 54 mg/day intranasal,0/12
same,Clinical observation: Decreased general activity,[4]; 54 mg/day intranasal,12/12***
same,Clinical observation: Decubitus,[4]; 54 mg/day intranasal,8/12***
same,Clinical observation: Increased general activity,[4]; 54 mg/day intranasal,12/12***
same,Clinical observation: Salivation (out of normal),[4]; 54 mg/day intranasal,12/12***
same,Clinical observation: audible respiration,[4]; 54 mg/day intranasal,6/12**
same,Clinical observation: bradypnoea,[4]; 54 mg/day intranasal,12/12***
same,Mortality,[4]; up to 54 mg/day for 14 days,No test article related mortality occurred
same,"Brain histopathology (neuronal necrosis, Olney lesions)","[4]; up to 54 mg/day, 48 hours after the last instillation, hydrochloride",no morphological evidence of neuronal degeneration; also recorded: no histopathological lesions were noted; also recorded: No histopathological lesions were found; also recorded: absence of neuronal necrosis
same,Maximum solubility expressed as base,[5],180 mg esketamine base/mL
(+)MK-801 maleate,Potency of the (+)-enantiomer relative to the (−)-enantiomer,NMDA receptor,7 times
